Assay results taken from patent US12297192B2, “Crystal form of pyrimidine sulfonamide compound and preparation method therefor” (WUXI BIOCITY BIOPHARMACEUTICS CO., LTD., priority 2019, dated 2025).
Values joined by “and” are separate entries in the source; they are usually repeats but may differ in a detail not shown here. Equal entries are not always repeated. Where a SMILES comes first, the peptide text is derived from it. [ ]: non-standard residue; d: D form.

What was measured:
human ETA receptors = biological target: T1, human ETA receptors (Homo sapiens, UniProt P25101); assay: In vitro antagonistic effect on human ETA receptors (Ca2+ fluorescence, SK-N-MC cells); assay type: cell-based; conditions: SK-N-MC cells, 1 nM endothelin-1
T1 construct: endogenously expressed human ETA receptors in SK-N-MC cells; host or cells: SK-N-MC cells
T1 sequence (P25101 21-427): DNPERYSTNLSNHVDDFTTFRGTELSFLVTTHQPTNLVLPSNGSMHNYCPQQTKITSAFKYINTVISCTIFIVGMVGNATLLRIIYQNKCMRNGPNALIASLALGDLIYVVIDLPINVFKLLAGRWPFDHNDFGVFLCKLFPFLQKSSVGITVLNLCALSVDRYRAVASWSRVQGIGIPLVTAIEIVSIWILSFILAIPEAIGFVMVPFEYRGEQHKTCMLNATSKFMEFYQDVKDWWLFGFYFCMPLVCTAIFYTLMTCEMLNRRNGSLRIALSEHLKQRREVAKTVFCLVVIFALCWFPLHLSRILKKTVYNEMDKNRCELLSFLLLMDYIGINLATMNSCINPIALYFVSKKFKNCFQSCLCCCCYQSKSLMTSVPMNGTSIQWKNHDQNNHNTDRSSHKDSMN
Description: The antagonistic activity of the compounds on endogenously expressed human ETA receptors in SK-N-MC cells was assessed by measuring the effects of the compounds on changes in cytoplasmic Ca^2+ ion signaling induced by an agonist of human ETA receptor using a fluorescence assay. The functional activity of the ETA receptor antagonistic effect was tested at Eurofins-Cerep SA according to current standard operating procedures.
• 1. Cells were suspended in Dulbecco's modified Eagle medium solution (DMEM, Invitrogen) supplemented with 1% FCSd and then distributed at a density of 5×10^4 cells/well in 384 plates (100 μL/well). • 2. Hank's Balanced Salt Solution (HBSS, Invitrogen) supplemented with 20 mM 4-(2-hydroxyethyl) piperazine-1-ethanesulfonic acid (Hepes, Invitrogen) (pH 7.4) was mixed with the fluorescent probe (Fluo4 NW, Invitrogen) and added to each well. Equilibrated with the cells for 60 minutes at 37° C. and then for 15 min at 22° C. • 3. The assay plate was placed in a microplate reader (CellLux, PerkinElmer). DMSO solution of the test compound and the positive control in appropriate concentration or HBSS buffer was added. After 5 minutes, 1 nM endothelin-1 or HBSS buffer (basal control) was added. Then the change in fluorescence intensity was measured. The fluorescence intensity is in proportion to the Ca^2+ ion concentration of the free cytosol. • 4. […] The standard positive control was BQ-123 and several concentrations were tested in each experiment and the data was analyzed using Prism to produce a concentration-response curve to calculate the IC50 values of the compounds. • 6.

human ETB receptors = biological target: T2, human ETB receptors (Homo sapiens, UniProt P24530); assay: In vitro antagonistic effect on human ETB receptors (Ca2+ fluorescence, transfected CHO cells); assay type: cell-based; conditions: 0.3 nM endothelin-1
T2 construct: host or cells: CHO cells
T2 sequence (P24530 27-442): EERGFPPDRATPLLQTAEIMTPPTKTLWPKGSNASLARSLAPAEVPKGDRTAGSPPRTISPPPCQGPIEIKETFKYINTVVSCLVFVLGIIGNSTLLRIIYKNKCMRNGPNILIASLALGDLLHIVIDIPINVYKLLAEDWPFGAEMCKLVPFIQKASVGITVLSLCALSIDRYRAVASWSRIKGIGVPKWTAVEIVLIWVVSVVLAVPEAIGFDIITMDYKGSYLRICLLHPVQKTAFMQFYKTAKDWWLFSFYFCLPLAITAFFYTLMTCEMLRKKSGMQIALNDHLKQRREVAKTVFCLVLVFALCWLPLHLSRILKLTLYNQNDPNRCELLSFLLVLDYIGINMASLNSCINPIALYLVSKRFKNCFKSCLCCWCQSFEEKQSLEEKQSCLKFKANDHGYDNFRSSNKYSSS
Description: The antagonist activities of the compounds on human ETB receptors expressed in transfected CHO cells were assessed by measuring the effects of the compounds on changes in cytoplasmic Ca^2+ ion signaling induced by an agonist of human ETB receptor using a fluorescence assay. The functional activity of the ETB receptor antagonistic effect was tested at Eurofins-Cerep SA according to current standard operating procedures.
• 1. Cells were suspended in DMEM buffer (Invitrogen) and then distributed at a density of 3×10^4 cells/well in 384 plates (100 μL/well). • 2. HBSS buffer (Invitrogen) supplemented with 20 mM Hepes (Invitrogen) (pH 7.4) was mixed with the fluorescent probe (Fluo4 Direct, Invitrogen) and added to each well. Equilibrated with the cells for 60 minutes at 37° C. and then for 15 minutes at 22° C. • 3. The assay plate was placed in a microplate reader (CellLux, PerkinElmer). DMSO solution of the test compound and the positive control or HBSS buffer in appropriate concentration was added. […] Then the change in fluorescence intensity was measured. The fluorescence intensity is in proportion to the Ca^2+ ion concentration of the free cytosol. • 4. […] The standard positive control was BQ-788 and several concentrations were tested in each experiment and the data was analyzed using Prism to produce a concentration-response curve to calculate the IC50 values of the compounds. […]

Row | IC50 (human ETA receptors) | IC50 (human ETB receptors) | Compound
1 | 0.00061 µM and 0.00048 µM | – | CC(C)C[C@@H]1NC(=O)[C@@H](C(C)C)NC(=O)[C@@H]2CCCN2C(=O)[C@@H](CC(=O)O)NC(=O)[C@@H](Cc2c[nH]c3ccccc23)NC1=O [BQ-123, reference compound] (cyclo(L[dW][dD]P[dV]))
2 | – | 0.13 µM and 0.091 µM | CCCC[C@@H](NC(=O)[C@@H](Cc1cn(C(=O)OC)c2ccccc12)NC(=O)[C@H](CC(C)(C)C)NC(=O)N1[C@H](C)CCC[C@@H]1C)C(=O)O [BQ-788]
